From EP3244885B1, “LIPOIC ACID FOR TREATING OR PREVENTING THREATENED MISCARRIAGE OR PRETERM DELIVERY” (priority 2015, dated 2016)

Legend:
[1] = tested on: primigravid patients with subchorionic hematoma; assay: Randomized clinical trial, vaginal capsules of example 4 (10 mg ALA) vs. progesterone and untreated controls: reabsorption of subchorionic hematoma, pelvic pain, vaginal bleeding, abortions; assay type: in vivo, women; conditions: for Pel. pain, 2nd visit / Vaginal bleeding, 2nd visit: 20 days after the first visit; for Pel. pain, 2nd visit: ALA p ≤ 0.05 vs the other two groups; for Vaginal bleeding, 2nd visit: no significant differences between the three groups; for Pel. pain, visit upon enrolment / Vaginal bleeding, visit upon enrolment: share of patients with symptom at enrolment (baseline); for Improvement (%) mean ± st. error (resorption of the subchorionic hematoma): vaginal, ALA 10 mg/day or progesterone 400 mg daily, ALA p ≤ 0.05 vs progesterone and control groups
Method: Randomized trial, vaginal capsules of example 4 vs. progesterone and placebo Number of participants: […] (27 medical device, 27 progesterone, 22 placebo)
In primigravid patients between the 7th and 12th week of gestation, the trial had the following objective: • evaluating whether the administration of 10 mg ALA vaginally is associated with the reabsorption of the subchorionic hematoma.
Reduction or disappearance of: • pelvic pain • vaginal bleeding
• Women aged 20-40 • Primigravid between 7th e and 12th weeks of gestation • Presence of pelvic pain • With or without moderate vaginal bleeding • Presence of the subchorionic hematoma detected by ultrasound
(§1) • Absence of the fetus • Absence of heartbeat • Presence of uterine abnormalities • Presence of fetal abnormalities • Presence of multiple pregnancies • Presence of pre-pregnancy or gestational abnormalities • Diagnosis of allergic reaction to progesterone • Presence of ongoing therapies with anticoagulants or antihypertensives • Presence of karyotypic abnormalities
The women enrolled to be treated with ALA or progesterone were randomized into 2 groups: • 27 were administered with vaginal capsules containing 10 mg ALA 1 per day until resolution of the clinical condition • 27 were administered with vaginal capsules containing 400 mg progesterone daily.
The women in the control group were those who refuse any medical treatment.
(§2) Three visits were scheduled: • 1) Enrolment • 2) 20 days after the first visit • 3) 60 days after the first visit
In each visit, a "blinded" operator carried out the ultrasound examination to evaluate the subchorionic hematoma and the subjective (pelvic pain) and objective (vaginal bleeding) symptoms were recorded.

[2] = tested on: primigravid patients with subchorionic hematoma; assay: as above; assay type: in vivo, women; conditions: number of abortions per group (27 patients each); ALA p ≤ 0.05 vs progesterone and control groups
[3] = tested on: primigravid patients with threat of spontaneous abortion; assay type: in vivo, women; conditions: 60 patients per group, vaginal, ALA 10 mg/day or progesterone 400 mg daily, p ≤ 0.05; for Absence of symptoms: post treatment
Method: Randomized trial, vaginal capsules of example 4 vs. progesterone and placebo Number of participants: 120 (60 medical device, 60 progesterone)
In primigravid patients between the 7th and 12th week of gestation, the trial had the following objective: • evaluating whether the administration of 10mg ALA vaginally is associated with the reduction of the number of spontaneous abortions.
Reduction or disappearance of symptoms related to the risk of spontaneous abortion after therapy
as §1, with “•” for “• Absence of the fetus •”
The women enrolled to be treated with ALA or progesterone were randomized into 2 groups: • 60 were administered with vaginal capsules containing 10 mg ALA 1 per day until resolution of the clinical condition • 60 were administered with vaginal capsules containing 400 mg progesterone daily.
as §2

[4] = tested on: fragments of amniochorial membranes; conditions: pre-treatment with ALA; cited from earlier work

| SMILES | Pel. pain, 2nd visit [1] | Vaginal bleeding, 2nd visit [1] | Pel. pain, visit upon enrolment [1] | Vaginal bleeding, visit upon enrolment [1] | Improvement (%) mean ± st. error (resorption of the subchorionic hematoma) [1] | Spontaneous abortions [2] | Abortion [3] | Absence of symptoms [3] | release of MMP9 and cytokine-induced prostaglandin E2 [4] | weakening of membranes induced by TNF [4] |
| --- | --- | --- | --- | --- | --- | --- | --- | --- | --- | --- |
| O=C(O)CCCCC1CCSS1 (stereo not drawn) [ALA, α-lipoic acid] | 0% | 0% | 100% | 54% | 83.9 ± 3.9% | 3 | 15% | 85% | able to inhibit | able to inhibit |
| CC(=O)[C@H]1CC[C@H]2[C@@H]3CCC4=CC(=O)CC[C@]4(C)[C@H]3CC[C@]12C [Progesterone, reference compound] | 14% | 0% | 100% | 57% | 49.7 ± 2.7% | 6 | 25% | 75% | – | – |
